Results as given in US5514694A, “Peptidyl ketoamides” (Georgia Tech Research Corp, priority 1993, dated 1996).
Where two headings read alike, the source gives them in different places.

Columns and labels:
Format in all cases: biochemical
[1] = target: T1, cathepsin B (Homo sapiens, UniProt P07858); assay: Cathepsin B inhibition (KI); conditions: read-out: KI Cat B
T1 construct: purchased Sigma
Method: (§1) HEPES, heparin, and A23187 were obtained from Calbiochem. Suc-Leu-Tyr-AMC and chromogenic substrates were obtained from Sigma. Calpain I was purified from human erythrocytes according to the method of Kitahara (Kitahara et al., J. Biochem. 95, 1759-1766) omitting the Blue-Sepharose step. Calpain II from rabbit muscle and cathepsin B were purchased from Sigma. Papain was purchased from Calbiochem.
(§2) Peptide α-ketoamides were assayed as reversible enzyme inhibitors. Various concentrations of inhibitors in Me2 SO were added to the assay mixture which contained buffer and substrate. The reaction was started by the addition of the enzyme and the hydrolysis rates were followed spectrophotometrically or fluorimetrically.
(§3) Calpain I from human erythrocytes and calpain II from rabbit were assayed using Suc-Leu-Tyr-AMC Sasaki et al., J. Biol. Chem. 259, 12489-12494 (1984); incorporated herein by reference!, and the AMC (7-amino-4-methylcoumarin) release was followed fluorimetrically (excitation at 380 nm, and emmision at 460 nm). Calpains were assayed in 25 mM Tris pH=8.0, 10 mM CaC12. Fluorescence was followed using a Gilson FL-1A fluorometer or a Perkin-Elmer 203 Fluorescence spectrometer. Cathepsin B was assayed in 20 mM sodium acetate pH=5.2, 0.5 mM dithiothreitol using Bz-Phe-Val-Arg-p-nitroanilide as substrate. Alternately, cathepsin B was assayed with Z-Arg-Arg-AFC Barrett and Kirschke, Methods Enzymol. 80, 535-561 (1981); incorporated herein by reference!, and the AFC (7-amino-4-trifluoromethylcoumarin) release was followed fluorimetrically (excitation at 400 nm and emmision at 505 nm). Papain was assayed in 100 mM KPO4, 1 mM EDTA, 2.5 mM cysteine pH=6.0 using Bz-Arg-AMC or Bz-Arg-NA Kanaoka et al., Chem. Pharm. Bull. 25, 3126-3128 (1977); incorporated herein by reference! as a substrate. The AMC (7-amino-4-methylcoumarin) release was followed fluorimetrically (excitation at 380 nm, and emmision at 460 nm). Enzymatic hydrolysis rates were measured at various substrate and inhibitor concentrations, and KI values were determined by either Lineweaver-Burk plots or Dixon plots.
(§4) A 0.1M Hepes, 0.5M NaCl, pH 7.5 buffer was utilized for human leukocyte elastase (HLE), porcine pancreatic elastase (PPE), chymotrypsin and cathepsin G. A 0.1 Hepes, 0.01 M CaCl2, pH 7.5 buffer was utilized for trypsin, plasmin, and coagulation enzymes. A 50 mM Tris.HCl, 2 mM EDTA, 5 mM cysteine, pH 7.5 was used as a buffer for papain. A 88 mM KH2 PO4, 12 mM Na2 HPO4, 1.33 mM EDTA, 2.7 mM cysteine, pH 6.0 solution was used as a buffer for cathepsin B. A 20 mM Hepes, 10 mM CaCl2, 10 mM mercatoethanol, pH 7.2 buffer was utilized for calpain I and calpain II.

[2] = target: calpain II from rabbit; assay: Calpain II inhibition, Suc-Leu-Tyr-AMC hydrolysis (KI); conditions: for Ki: read-out: KI Cal II
Method: as §1, §2, §3, §4

[3] = target: T2, Calpain I from human erythrocytes (Homo sapiens, UniProt P07384); assay: Calpain I inhibition, Suc-Leu-Tyr-AMC hydrolysis (KI); conditions: read-out: KI Cal I
T2 construct: Calpain I was purified from human erythrocytes; from tissue; host or cells: human erythrocytes
T2 sequence (P07384 1-714): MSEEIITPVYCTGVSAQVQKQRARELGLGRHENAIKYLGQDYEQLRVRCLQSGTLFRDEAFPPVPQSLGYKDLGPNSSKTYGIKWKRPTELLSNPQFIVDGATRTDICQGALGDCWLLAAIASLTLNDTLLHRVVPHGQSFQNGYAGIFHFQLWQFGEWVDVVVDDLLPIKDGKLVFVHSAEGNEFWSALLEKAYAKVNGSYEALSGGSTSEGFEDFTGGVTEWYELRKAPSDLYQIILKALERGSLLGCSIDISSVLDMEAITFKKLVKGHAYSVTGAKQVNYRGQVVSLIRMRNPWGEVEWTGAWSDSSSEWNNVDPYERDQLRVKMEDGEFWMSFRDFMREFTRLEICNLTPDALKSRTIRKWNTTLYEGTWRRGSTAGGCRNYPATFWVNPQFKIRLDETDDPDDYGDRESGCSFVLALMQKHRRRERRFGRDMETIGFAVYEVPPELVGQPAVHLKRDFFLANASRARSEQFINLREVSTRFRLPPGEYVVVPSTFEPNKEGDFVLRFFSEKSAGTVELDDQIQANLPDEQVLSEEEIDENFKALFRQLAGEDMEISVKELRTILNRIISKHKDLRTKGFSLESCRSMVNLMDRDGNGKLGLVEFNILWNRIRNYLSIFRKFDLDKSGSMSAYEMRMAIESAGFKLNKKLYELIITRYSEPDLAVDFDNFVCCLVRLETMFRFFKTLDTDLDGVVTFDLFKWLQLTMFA
T2 sequence (P04632 1-268 partner): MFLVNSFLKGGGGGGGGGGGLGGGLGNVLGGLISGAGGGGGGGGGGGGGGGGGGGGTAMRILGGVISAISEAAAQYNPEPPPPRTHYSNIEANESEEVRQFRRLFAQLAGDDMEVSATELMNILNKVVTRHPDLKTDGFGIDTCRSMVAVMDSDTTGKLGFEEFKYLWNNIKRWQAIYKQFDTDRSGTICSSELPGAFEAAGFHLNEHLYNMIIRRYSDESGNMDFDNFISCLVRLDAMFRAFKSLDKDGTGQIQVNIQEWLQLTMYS
Method: as §1, §2, §3, §4

[4] = Table 2, Z-Leu--AA--CONH--CH2 CH(OH)-R

| Compound | Ki ([1]; Table 1, Z-Leu--AA--CONHR) | Ki ([2]; Table 1, Z-Leu--AA--CONHR) | Ki ([3]; Table 1, Z-Leu--AA--CONHR) | other results |
| --- | --- | --- | --- | --- |
| CC(C)CC(NC(=O)C(c1ccccc1)c1ccccc1)C(=O)NC(Cc1ccccc1)C(=O)C(=O)NCc1ccccn1 (stereo not drawn) [Ph2 CH-CO-Leu-Phe-CONH-CH2 -2-pyridyl, Ph2 CHCO-Leu-Phe-CONH--CH2 -2-Pyridyl] | – | – | – | Ki ([1]; Table 3, M1 CO-Leu--AA--CONH-R): 2200 nM; Ki ([2]; Table 3, M1 CO-Leu--AA--CONH-R): 360 nM; Ki ([3]; Table 3, M1 CO-Leu--AA--CONH-R): 1100 nM |
| CCC(NC(=O)C(CC(C)C)NC(=O)C(c1ccccc1)c1ccccc1)C(=O)C(=O)NCCCN1CCOCC1 (stereo not drawn) [Ph2 CHCO-Leu-Abu-CONH--N--(CH2)3 -Morpholinyl] | – | – | – | Ki ([1]; Table 3, M1 CO-Leu--AA--CONH-R): 2300 nM; Ki ([2]; Table 3, M1 CO-Leu--AA--CONH-R): 110 nM; Ki ([3]; Table 3, M1 CO-Leu--AA--CONH-R): 800 nM |
| CC(C)CC(NC(=O)C(c1ccccc1)c1ccccc1)C(=O)NC(Cc1ccccc1)C(=O)C(=O)NCCCN1CCOCC1 (stereo not drawn) [Ph2 CHCO-Leu-Phe-CONH--(CH2)3 -4-Morpholinyl] | – | – | – | Ki ([1]; Table 3, M1 CO-Leu--AA--CONH-R): 3800 nM; Ki ([2]; Table 3, M1 CO-Leu--AA--CONH-R): 74 nM; Ki ([3]; Table 3, M1 CO-Leu--AA--CONH-R): 760 nM |
| CCC(NC(=O)C(CC(C)C)NC(=O)OCc1ccccc1)C(=O)C(=O)NCCc1ccc(OC)cc1 (stereo not drawn) [Z-Leu-Abu-CONH-(CH2)2 C6 H4 (4-OCH3), Z-Leu-Abu-CONH--(CH2)2 C6 H4 (4-OCH3)] | 440 nM | 46 nM | 120 nM | – |
| CCC(NC(=O)C(CC(C)C)NC(=O)OCc1ccccc1)C(=O)C(=O)NCCCn1ccnc1 (stereo not drawn) [Z-Leu-Abu-CONH-(CH2)3 -1-imidazolyl, Z-Leu-Abu-CONH--(CH2)3 -1-Imidazolyl] | 9900 nM | 68 nM | 290 nM | – |
| CC[C@H](NC(=O)[C@H](CC(C)C)NC(=O)OCc1ccccc1)C(=O)C(=O)NCCCCCO [Z-Leu-Abu-CONH-(CH2)5 OH, Z-Leu-Abu-CONH--(CH2)5 OH] | 280 nM | 51 nM | – | – |
| CCC(NC(=O)[C@H](CC(C)C)NC(=O)OCc1ccccc1)C(=O)C(=O)NCCc1cccn1C (stereo partly drawn) [Z-Leu-Abu-CONH--(CH2)2-2-(N-Methylpyrrole)] | 1200 nM | 76 nM | – | – |
| CCC(NC(=O)C(CC(C)C)NC(=O)OCc1ccccc1)C(=O)C(=O)NCCCN1CCCC1=O (stereo not drawn) [Z-Leu-Abu-CONH--(CH2)3 -1-Pyrrolidinyl-2-one] | 2000 nM | 270 nM | 1200 nM | – |
| CCC(NC(=O)C(CC(C)C)NC(=O)OCc1ccccc1)C(=O)C(=O)NCC1(C)CC(O)CC(C)(C)C1 (stereo not drawn) [Z-Leu-Abu-CONH--CH2 --C6 H8 (1,3,3-(CH3)3 -5-OH)] | 890 nM | 69 nM | 420 nM | – |
| CCC(NC(=O)C(CC(C)C)NC(=O)OCc1ccccc1)C(=O)C(=O)NCc1nccc2ccccc12 (stereo not drawn) [Z-Leu-Abu-CONH-CH2 -1-isoquinolinyl, Z-Leu-Abu-CONH--CH2 -1-Isoquinolinyl] | 300 nM | – | 250 nM | – |
| CCC(NC(=O)C(CC(C)C)NC(=O)OCc1ccccc1)C(=O)C(=O)NCc1ccccn1 (stereo not drawn) [Z-Leu-Abu-CONH-CH2 -2-pyridyl, Z-Leu-Abu-CONH--CH2 -2-Pyridyl] | 3000 nM | 17 nM | 640 nM | inhibition of calpain II, in words [2]: best inhibitor of calpain II |
| CCC(NC(=O)C(CC(C)C)NC(=O)OCc1ccccc1)C(=O)C(=O)NCC1CCCO1 (stereo not drawn) [Z-Leu-Abu-CONH-CH2 -2-tetrahydrofuryl, Z-Leu-Abu-CONH--CH2 -2-Tetrahydrofuryl] | 4500 nM | 66 nM | 330 nM | – |
| CCC(NC(=O)C(CC(C)C)NC(=O)OCc1ccccc1)C(=O)C(=O)NCc1cccnc1 (stereo not drawn) [Z-Leu-Abu-CONH-CH2 -3-pyridyl, Z-Leu-Abu-CONH--CH2 -3-Pyridyl] | 1200 nM | 120 nM | – | inhibition of calpain II, in words [2]: substantially poorer inhibitors |
| CCC(NC(=O)C(CC(C)C)NC(=O)OCc1ccccc1)C(=O)C(=O)NCc1ccncc1 (stereo not drawn) [Z-Leu-Abu-CONH-CH2 -4-pyridyl, Z-Leu-Abu-CONH--CH2 -4-Pyridyl] | 6400 nM | 110 nM | 1100 nM | inhibition of calpain II, in words [2]: substantially poorer inhibitors |
| CC[C@H](NC(=O)[C@H](CC(C)C)NC(=O)OCc1ccccc1)C(=O)C(=O)NCc1cc(OC)cc(OC)c1 [Z-Leu-Abu-CONH-CH2 C6 H3 (3,5-(OCH3)2), Z-Leu-Abu-CONH--CH2 C6 H3 (3,5-(OCH3)2] | 1800 nM | 22 nM | 2300 nM | – |
| CCC(NC(=O)C(CC(C)C)NC(=O)OCc1ccccc1)C(=O)C(=O)NCC(O)c1ccccc1 (stereo not drawn) [Z-Leu-Abu-CONH-CH2 CH(OH)-Ph, Z-Leu-Abu-CONH--CH2 CH(OH)Ph] | – | – | – | Ki [1, 4]: 370 nM; inhibition of calpain II, in words [2]: best inhibitor for calpain II; Ki [2, 4]: 15 nM; Ki [3, 4]: 1100 nM |
| CCCC(NC(=O)C(CC(C)C)NC(=O)OCc1ccccc1)C(=O)C(=O)NCCCN1CCOCC1 (stereo not drawn) [Z-Leu-Nva-CONH-(CH2)3 -4-morpholinyl, Z-Leu-Nva-CONH--(CH2)3 -4-Morpholinyl] | 4200 nM | 100 nM | 250 nM | – |
| CC(C)C[C@H](NC(=O)OCc1ccccc1)C(=O)NC(Cc1ccccc1)C(=O)C(=O)NCc1nccc2ccccc12 (stereo partly drawn) [Z-Leu-Phe-CONH-CH2 -1-isoquinolinyl, Z-Leu-Phe-CONH--CH2 -1-Isoquinolinyl] | 9600 nM | – | 2400 nM | – |
| CC(C)CC(NC(=O)OCc1ccccc1)C(=O)NC(Cc1ccccc1)C(=O)C(=O)NCc1ccccn1 (stereo not drawn) [Z-Leu-Phe-CONH-CH2 -2-pyridyl, Z-Leu-Phe-CONH--CH2 -2-Pyridyl] | 270 nM | 650 nM | – | – |
| CC(C)CC(NC(=O)OCc1ccccc1)C(=O)NC(Cc1ccccc1)C(=O)C(=O)NCc1ccc2ccccc2n1 (stereo not drawn) [Z-Leu-Phe-CONH-CH2 -2-quinolinyl, Z-Leu-Phe-CONH--CH2 -2-Quinolinyl] | 340 nM | 23 nM | 110 nM | – |
| Z-Leu-Abu-CONH--(CH2)2 C6 H4 (3-OCH3) [Z-Leu-Abu-CONH-(CH2)2 C6 H4 (3-OCH3)] | 310 nM | 86 nM | 110 nM | – |
